Data from patent publication US20200140444A1, “INHIBITORS OF MUTANT ISOCITRATE DEHYDROGENASES AND COMPOSITIONS AND METHODS THEREOF” (IsoCure Biosciences Inc., priority 2017, published 2020).

Tests used:
IDH1 (R132H) = IDH1 (R132H) (Homo sapiens, UniProt O75874, R132H); experiment: IDH enzyme assay, NADPH production or depletion measured by diaphorase/resazurin coupled detection; type: biochemical; details: read-out: Compound IC50 (M) IDH1 (R132H)
Procedure: (§1) Compounds were tested against 2 enzymes.
(§2) The production or depletion of NADPH by IDH enzymes was measured by diaphorase/resazurin coupled detection.

IDH1 (R132C) = IDH1 (R132C) (Homo sapiens, UniProt O75874, R132C); experiment: as above; type: biochemical; details: read-out: Compound IC50 (M) IDH1 (R132C)
Chain of IDH1 (R132C) (O75874 whole entry R132C): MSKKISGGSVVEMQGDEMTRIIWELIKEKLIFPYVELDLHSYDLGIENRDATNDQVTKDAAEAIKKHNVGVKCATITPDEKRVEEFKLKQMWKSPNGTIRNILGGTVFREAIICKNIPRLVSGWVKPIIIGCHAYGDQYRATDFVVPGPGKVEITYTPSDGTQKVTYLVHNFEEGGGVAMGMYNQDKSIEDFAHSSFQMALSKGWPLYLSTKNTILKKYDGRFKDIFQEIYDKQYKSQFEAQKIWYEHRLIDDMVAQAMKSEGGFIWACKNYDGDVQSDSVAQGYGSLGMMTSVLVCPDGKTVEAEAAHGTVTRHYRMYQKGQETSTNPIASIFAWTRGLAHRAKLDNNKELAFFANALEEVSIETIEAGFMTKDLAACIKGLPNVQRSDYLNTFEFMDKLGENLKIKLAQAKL
Procedure: as §1, §2

Chain of IDH1 (R132H) (O75874 whole entry R132H): as the sequence (O75874 whole entry R132C) above, with C132H counted along it

IC50 (IDH1 (R132H))	IC50 (IDH1 (R132C))	Compound
5.36e-07 M	3.1e-06 M	Cc1cccc(NC(=O)c2nc(Cc3ccccc3)n3c2CN(C(=O)c2ccc[nH]2)CC3)c1 [Compound 5-1, 3-benzyl-7-(1H-pyrrole-2-carbonyl)-N-(m-tolyl)-5,6,7,8-tetrahydroimidazo[1,5-a]pyrazine-1-carboxamide]
1.64e-06 M	–	C[C@H](O)c1cccc(NC(=O)c2nc(Cc3ccccc3)n3c2CN(C(=O)c2ccc[nH]2)CC3)c1 [Compound 5-2, (S)-3-benzyl-N-(3-(1-hydroxyethyl)phenyl)-7-(1H-pyrrole-2-carbonyl)-5,6,7,8-tetrahydroimidazo[1,5-a]pyrazine-1-carboxamide]
